Assay results published in patent US7897628B2, “Aryl carbonyl derivatives as therapeutic agents” (Novo Nordisk A/S, priority 2002, dated 2011).

The compounds below were run on glucokinase (assay: Liver specificity: activity in isolated hepatocytes (Glucokinase Activity Assay (II)) compared to Ins-1 cells (Glucokinase Activity Assay (III))). Conditions: Glucokinase Activity Assay (II) (isolated hepatocytes) compared to Glucokinase Activity Assay (III) (Ins-1 cells).
Format: cell-based
Source text: For the purpose of describing this invention, the potential liver selectivity of a glucokinase activator may be assayed by comparison of the results obtained in response to the glucokinase activator in isolated hepatocytes and the results obtained in response to the glucokinase activator in Ins-1 cells. […] The activity of the glucokinase activator in Glucokinase Activity Assay (II) (hepatocytes) may for instance be at least 1.1 fold higher, such as at least 1.2 fold higher, for instance at least 1.3 fold higher, such as at least 1.4 fold higher, for instance 1.5 fold higher, such as at least 1.6 fold higher, for instance at least 1.7 fold higher, such as at least 1.8 fold higher, for instance at least 1.9 fold higher, such as at least 2.0 fold higher, for instance at least a 3.0 fold higher, such as at least a 4.0 fold higher, for instance at least 5.0 fold higher, such as at least 10 fold higher than the activity of the glucokinase activator in Glucokinase Activity Assay (III) (Ins-1 cells). Alternatively, the glucokinase activator may show no activity in the Ins-1 cells measured as described in the Glucokinase Activity Assay (III), while showing a significant activity in hepatocytes measured as described in the Glucokinase Activity Assay (II).

Row | SMILES | liver specific glucokinase activator (significantly higher activity in isolated hepatocytes than in Ins-1 cells)
1 | COc1cccc(Oc2ccc(F)cc2NC(=O)Nc2nc(C(=O)O)cs2)c1OC [2-{3-[2-(2,3-dimethoxyphenoxy)-5-fluorophenyl]ureido}thiazole-4-carboxylic acid] | liver specific glucokinase activators
2 | CCOC(=O)c1csc(NC(=O)Nc2cc(F)ccc2Oc2cccc(OC)c2OC)n1 [2-{3-[2-(2,3-dimethoxyphenoxy)-5-fluorophenyl]ureido}thiazole-4-carboxylic acid ethyl ester] | liver specific glucokinase activators
3 | CCOC(=O)Cc1csc(NC(=O)Nc2cc(F)ccc2Oc2cccc(OC)c2OC)n1 [(2-{3-[2-(2,3-dimethoxyphenoxy)-5-fluorophenyl]ureido}thiazol-4-yl)acetic acid ethyl ester] | liver specific glucokinase activators
4 | COc1cccc(F)c1Oc1ccc(F)cc1NC(=O)Nc1nc(CC(=O)O)cs1 [(2-{3-[5-fluoro-2-(2-fluoro-6-methoxyphenoxy)phenyl]ureido}thiazol-4-yl)acetic acid] | liver specific glucokinase activators
5 | COc1cccc(F)c1Oc1ccc(F)cc1NC(=O)Nc1nc(CC(=O)NCCN2CCOCC2)cs1 [2-(2-{3-[5-fluoro-2-(2-fluoro-6-methoxyphenoxy)phenyl]ureido}thiazol-4-yl)-N-(2-morpholin-4-ylethyl)acetamide] | liver specific glucokinase activators
6 | Cc1ccc(NC(=O)Nc2nc(CC(=O)O)cs2)c(C(=O)C2CCCC2)c1 [{2-[3-(2-cyclopentanecarbonyl-4-methyl-phenyl)-ureido]-thiazol-4-yl}-acetic acid] | liver specific glucokinase activators
7 | COc1cccc(F)c1Oc1ccc(F)cc1NC(=O)Nc1nc(CC(=O)NCC(=O)O)cs1 [[2-(2-{3-[5-fluoro-2-(2-fluoro-6-methoxyphenoxy)phenyl]ureido}thiazol-4-yl)acetylamino]acetic acid] | liver specific glucokinase activators
8 | Cc1ccc(NC(=O)Nc2nc(CC(=O)O)cs2)c(OCC(C)C)c1 [{2-[3-(4-methyl-2-[2-methylpropoxy]phenyl)-ureido]-thiazol-4-yl}-acetic acid] | liver specific glucokinase activators
